Experimental data published in patent publication US12729181B2, “Compounds, compositions, and methods for modulating calcium ion homeostasis” (The Regents of the University of California, priority 2020, dated 2026).

How the values were obtained:
tre^tc318 mutant embryos = assay: Compound rescue screen: restoration of persistent heartbeat in tremblor embryos; format: in vivo, Zebrafish; conditions: for responders at 10 µM / responders at 15 µM / responders at 20 µM: Danio rerio, 48 h; for responders at 10 µM: read-out: Rescue at 10 uM (%); for responders at 15 µM: read-out: Rescue at 15 uM (%); for responders at 20 µM: read-out: Rescue at 20 uM (%); for Rescue at 10 uM (%): 10 uM from 30 hpf; for Rescue at 15 uM (%): 15 uM from 30 hpf
Method: Zebrafish of the mutant line tremblor (tre^tc318) were maintained and bred as described previously in the literature. C. f. Langenbacher A D, et al., PNAS, 2005, 102(49), 17699-17704.
Exemplary compounds were screened for their ability to partially or completely restore persistent heartbeat in tre^tc318 embryos. 10 tre^tc318 mutant embryos were placed in each well of a 24-well plate and raised in the presence of individual compounds at various concentrations (5, 10, 15 and 20 μM) from 30 hpf. Cardiac function was analyzed by visual inspection at 2 dpf. The hearts of tre^tc318 embryos manifest a chaotic movement resembling cardiac fibrillation with sporadic contractions. Compounds that elicited persistent coordinated cardiac contractions were validated by rescreening at least once on another 10 tre^tc318 mutant embryos.

VDAC2 = assay: Binding of efsevin to VDAC2
cardiomyocytes = assay: Ca sparks, Ca waves and contractions in cardiomyocytes; format: cell-based
[1] = Metabolic stability in vivo
[2] = cardiac function by visual inspection at 2 dpf, 10 embryos per well

CCOC(=O)C1=CCN(S(=O)(=O)c2ccc(C)cc2)C1c1ccccc1 (stereo not drawn) [FS001, efsevin, reference compound]
responders at 10 µM (tre^tc318 mutant embryos): 58% | responders at 15 µM (tre^tc318 mutant embryos): 80% | responders at 20 µM (tre^tc318 mutant embryos): 45% | activity to restore coordinated contractions in tremblor (tre^tc318 mutant embryos; chemical suppressor screen on zebrafish tremblor embryos): potent activity to restore coordinated contractions in tremblor | binding to VDAC2 (VDAC2): bind to VDAC2 | effect on Ca overload-induced Ca waves and contractions (cardiomyocytes): inhibits Ca+overload-induced erratic Ca^+ waves and irregular contractions | metabolic stability in vivo [1]: poor metabolic stability in vivo

CCOC(=O)C1=CCN(S(=O)(=O)c2ccc(Br)cc2)C1c1ccc(Cl)c(Cl)c1 (stereo not drawn) [FS092]
responders at 10 µM (tre^tc318 mutant embryos): 0% | responders at 15 µM (tre^tc318 mutant embryos): 11% | responders at 20 µM (tre^tc318 mutant embryos): 11%

CCOC(=O)C1=CCN(S(=O)(=O)c2ccc(Br)cc2)C1c1ccc(Br)cc1 (stereo not drawn) [FS100]
responders at 10 µM (tre^tc318 mutant embryos): 0% | responders at 15 µM (tre^tc318 mutant embryos): 33%

CCOC(=O)C1=CCN(S(=O)(=O)c2ccccc2Cl)C1c1cccc(F)c1 (stereo not drawn) [FS027]
responders at 10 µM (tre^tc318 mutant embryos): 0%

CCOC(=O)C1=CCN(S(=O)(=O)c2ccccc2Cl)C1c1ccc(F)cc1 (stereo not drawn) [FS043]
responders at 10 µM (tre^tc318 mutant embryos): 33%

CCOC(=O)C1=CCN(S(=O)(=O)c2ccc(C)cc2)C1c1ccc(C(C)C)cc1 (stereo not drawn) [FS070]
Rescue at 10 uM (%) (tre^tc318 mutant embryos; [2]): 0%

CCOC(=O)C1=CCN(S(=O)(=O)c2ccc(C)cc2)C1c1cccs1 (stereo not drawn) [FS147]
responders at 15 µM (tre^tc318 mutant embryos): 60%

CCOC(=O)C1=CCN(S(=O)(=O)c2ccc([N+](=O)[O-])cc2)C1c1ccccc1 (stereo not drawn) [FS142]
Rescue at 15 uM (%) (tre^tc318 mutant embryos; [2]): 56%

CCOC(=O)C1=CCN(S(=O)(=O)c2ccccc2C)C1c1cccc(Br)c1 (stereo not drawn) [FS021]
responders at 10 µM (tre^tc318 mutant embryos): 10%

CCOC(=O)C1=CCN(S(=O)(=O)c2cccc(Cl)c2)C1c1cccc(Br)c1 (stereo not drawn) [FS120]
responders at 15 µM (tre^tc318 mutant embryos): 56%

CCOC(=O)C1=CCN(S(=O)(=O)c2ccccc2Br)C1c1cccc(F)c1 (stereo not drawn) [FS032]
responders at 10 µM (tre^tc318 mutant embryos): 0%

CCOC(=O)C1=CCN(S(=O)(=O)c2ccc(F)cc2)C1c1ccc(Cl)cc1 (stereo not drawn) [FS123]
responders at 15 µM (tre^tc318 mutant embryos): 70%

CCOC(=O)C1=CCN(S(=O)(=O)c2ccc(C)cc2)C1c1ccccc1F (stereo not drawn) [FS062]
Rescue at 10 uM (%) (tre^tc318 mutant embryos; [2]): 50% | Rescue at 15 uM (%) (tre^tc318 mutant embryos; [2]): 90% | Rescue at 20 uM (%) (tre^tc318 mutant embryos; 20 uM from 30 hpf, cardiac function by visual inspection at 2 dpf, 10 embryos per well): 60%

CCOC(=O)C1=CCN(S(=O)(=O)c2ccccc2F)C1c1ccc(Cl)c(Cl)c1 (stereo not drawn) [FS034]
responders at 10 µM (tre^tc318 mutant embryos): 65% | responders at 15 µM (tre^tc318 mutant embryos): 30% | responders at 20 µM (tre^tc318 mutant embryos): 20%

CCOC(=O)C1=CCN(S(=O)(=O)c2ccc(C)cc2)C1c1ccc(C#N)cc1 (stereo not drawn) [FS060]
responders at 10 µM (tre^tc318 mutant embryos): 80% | responders at 15 µM (tre^tc318 mutant embryos): 60% | responders at 20 µM (tre^tc318 mutant embryos): 0%

CCOC(=O)C1=CCN(S(=O)(=O)c2ccc(Br)cc2)C1c1ccc(C)cc1 (stereo not drawn) [FS102]
responders at 10 µM (tre^tc318 mutant embryos): 0%

CCOC(=O)C1=CCN(S(=O)(=O)c2cccc(Br)c2)C1c1ccc(Cl)cc1 (stereo not drawn) [FS136]
responders at 15 µM (tre^tc318 mutant embryos): 29%

CCOC(=O)C1=CCN(S(=O)(=O)c2ccc(C)cc2)C1c1cccc(Br)c1 (stereo not drawn) [FS067]
Rescue at 10 uM (%) (tre^tc318 mutant embryos; [2]): 20%

CCOC(=O)C1=CCN(S(=O)(=O)c2cccc(F)c2)C1c1ccc(Br)cc1 (stereo not drawn) [FS134]
responders at 15 µM (tre^tc318 mutant embryos): 60%

CCOC(=O)C1=CCN(S(C)(=O)=O)C1c1ccc(Cl)cc1 (stereo not drawn) [FS139]
Rescue at 15 uM (%) (tre^tc318 mutant embryos; [2]): 0%

CCOC(=O)C1=CCN(S(=O)(=O)c2ccccc2F)C1c1cccc(F)c1 (stereo not drawn) [FS037]
responders at 10 µM (tre^tc318 mutant embryos): 0%
